Assay results as given in PubChem BioAssay (NCI).
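Five compound concentrations were applied to cells in 96-well plates for 48 hours; endpoints were derived by simple linear interpolation of the resulting dose-response curve. Abbreviation: GI50, concentration required for 50% inhibition of growth. Definition used: TGI = concentration required for complete inhibition of growth.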

The molecules below were run on HCT-15 colon (assay: growth of human tumour cells (NCI), 48 h).

Row | SMILES | GI50 | TGI
1 | O=S(=O)(Nc1cc(Sc2cccc3cccnc23)c(O)c2ccccc12)c1ccccc1 | 0.464 µM | 2.5 µM
2 | CN(C)C(=O)[C@H](O)[C@H](Cc1ccccc1)NC(=O)c1cc2cc(Cl)ccc2[nH]1 | 22.4 µM | 81.5 µM
3 | CC(C)(C[C@H]1CN(S(=O)(=O)c2cccc(C(F)(F)F)c2)c2cc(-c3cc(F)cc(OC(F)F)c3)ccc2O1)C(=O)O | 4.19 µM | 16.9 µM
4 | Cc1ccc(-c2nc3ccc(Cl)cc3c(=O)n2N2C(=O)CSC2c2ccccc2Cl)cc1 (configuration not stated) | > 100 µM | > 100 µM
5 | O=C(O)C1C(Br)(c2ccccc2)C1(Br)c1ccccc1 (configuration not stated) | – | 47.5 µM
6 | C#Cc1c(I)n(C2OC(CO[Si](C)(C)C(C)(C)C)C3OC(C)(C)OC32)c(=O)[nH]c1=O (configuration not stated) | 4.09 µM | > 100 µM
7 | ClCC[N+]12CC[N+](CCCl)(CC1)C2 | – | > 100 µM
8 | COc1cc(C(=O)c2cc(C)c3[nH]c4ccc(C)cc4c3c2C)cc(OC)c1OC | < 0.01 µM | > 100 µM
9 | C=C1C(=O)OC2/C=C(\COC(C)=O)CCC(OC(C)=O)C3=CC(OC3=O)C12 (configuration not stated) | – | 7.76 µM
10 | Cc1ccc2[nH]c(O)c(N=Nc3ccc(S(N)(=O)=O)cc3)c2c1 | 11.1 µM | > 25 µM
11 | C/C(N=NC(=S)N(C)C)=C1\C=CC=CN1O | – | > 84.1 µM
12 | C=C1CCC(CC[C@@H]2CC[C@]3(OC2)O[C@@]2(O)CC[C@]3(C)OC2(C)C)C(C)(C)[C@H]1C/C=C1/C(=O)OC[C@@H]1O (some centres not stated) | – | 3.25 µM
13 | C[C@]12CC[C@@H]3c4cc(OCC(F)(F)F)c(O)cc4/C(=N/O)C[C@H]3[C@@H]1CC[C@@H]2O | 0.0487 µM | > 42.5 µM
14 | COc1cc(/C=C/c2ccc(OC)c(OC)c2)cc(OC)c1 | – | 23.7 µM
15 | CC1(C)[C@@H](OC(N)=O)[C@H]2O[C@H]2[C@]2(C=O)[C@H]3CC[C@]4(C)[C@@H](c5ccc(=O)oc5)[C@@H](Cl)C[C@]4(O)C3=CC[C@@H]12 | 0.0056 µM | 0.0128 µM
16 | CCCCON(OC(=O)c1ccc2ccc3cccc4ccc1c2c34)C(C)=O | 30.9 µM | > 100 µM
17 | Clc1ccc(C=Nc2ccc3c(c2)Cc2ccccc2-3)c(Cl)c1 | – | > 100 µM
18 | CN(C)CCN1C(=O)c2ccc3c4c(ccc(c24)C1=O)C(=O)N(CCN=C=S)C3=O | 0.0579 µM | 0.221 µM
19 | COc1ccc(/C=C/c2cc(OC)cc(=O)o2)cc1 | – | > 100 µM
20 | O=C(/C=C\c1ccc(NCc2ccc(C(=O)O)cc2)cc1)CCl | 3.35 µM | 12.7 µM
21 | COc1cccc2c(=O)c3c(sc12)c(N1CCNCC1)nc1ccccc13 | 1.53 µM | 3.09 µM
22 | COc1cc2[nH]c(C(=O)c3cc(OC)c(OC)c(OC)c3)c(N)c2cc1C#CC1CC1 | 2.3 µM | > 100 µM
23 | O=c1cc(NC2CCN(CCCc3ccccc3)CC2)c2cc(Cl)ccc2o1 | 3.89 µM | 17.4 µM
24 | CC(=O)N[C@H]1CSSC[C@@H](C(N)=O)NC(=O)[C@H](C(C)C)NC(=O)[C@H](C)NC(=O)[C@H](Cc2cnc[nH]2)NC1=O | > 100 µM | > 100 µM
25 | O=C1CC2c3ccccc3CCC2c2ccccc21 (configuration not stated) | – | 50.1 µM
26 | O=C1Nc2ccc(F)cc2/C1=C/c1ccc[nH]1 | 11.5 µM | > 25 µM
27 | CCCCCCCCCCCCCCCCCCOc1ccccc1CC(=O)OCC[N+]1(C)CCCC1 | 4.1 µM | 21 µM
28 | CC(=O)C(=CN1CCN(C(=O)c2ccco2)C1=S)C(C)=O | 2.16 µM | 5.55 µM

Each molecule was assayed on K-562 leukemia (assay: growth of human tumour cells (NCI), 48 h).

Row | SMILES | GI50 | TGI
29 | O=S(=O)(Nc1cc(Sc2cccc3cccnc23)c(O)c2ccccc12)c1ccccc1 | 0.929 µM | 16.5 µM
30 | CN(C)C(=O)[C@H](O)[C@H](Cc1ccccc1)NC(=O)c1cc2cc(Cl)ccc2[nH]1 | 25.8 µM | > 100 µM
31 | CC(C)(C[C@H]1CN(S(=O)(=O)c2cccc(C(F)(F)F)c2)c2cc(-c3cc(F)cc(OC(F)F)c3)ccc2O1)C(=O)O | 4.83 µM | 30.3 µM
32 | Cc1ccc(-c2nc3ccc(Cl)cc3c(=O)n2N2C(=O)CSC2c2ccccc2Cl)cc1 (configuration not stated) | > 100 µM | > 100 µM
33 | O=C(O)C1C(Br)(c2ccccc2)C1(Br)c1ccccc1 (configuration not stated) | – | > 100 µM
34 | C#Cc1c(I)n(C2OC(CO[Si](C)(C)C(C)(C)C)C3OC(C)(C)OC32)c(=O)[nH]c1=O (configuration not stated) | 2.08 µM | 5.37 µM
35 | ClCC[N+]12CC[N+](CCCl)(CC1)C2 | – | > 100 µM
36 | COc1cc(C(=O)c2cc(C)c3[nH]c4ccc(C)cc4c3c2C)cc(OC)c1OC | < 0.01 µM | > 100 µM
37 | COc1cc(/C=C/c2cc(/C=C/c3ccc(O)c(OC)c3)n(C(=O)Nc3ccc(C)cc3C)n2)ccc1O | 0.292 µM | 1.17 µM
38 | C=C1C(=O)OC2/C=C(\COC(C)=O)CCC(OC(C)=O)C3=CC(OC3=O)C12 (configuration not stated) | – | 7.63 µM
39 | Cc1ccc2[nH]c(O)c(N=Nc3ccc(S(N)(=O)=O)cc3)c2c1 | 13.8 µM | > 25 µM
40 | C/C(N=NC(=S)N(C)C)=C1\C=CC=CN1O | – | > 100 µM
41 | C=C1CCC(CC[C@@H]2CC[C@]3(OC2)O[C@@]2(O)CC[C@]3(C)OC2(C)C)C(C)(C)[C@H]1C/C=C1/C(=O)OC[C@@H]1O (some centres not stated) | – | 2.38 µM
42 | C[C@]12CC[C@@H]3c4cc(OCC(F)(F)F)c(O)cc4/C(=N/O)C[C@H]3[C@@H]1CC[C@@H]2O | 0.0213 µM | –
43 | COc1cc(/C=C/c2ccc(OC)c(OC)c2)cc(OC)c1 | – | > 100 µM
44 | CC1(C)[C@@H](OC(N)=O)[C@H]2O[C@H]2[C@]2(C=O)[C@H]3CC[C@]4(C)[C@@H](c5ccc(=O)oc5)[C@@H](Cl)C[C@]4(O)C3=CC[C@@H]12 | 0.00698 µM | 0.0253 µM
45 | CCCCON(OC(=O)c1ccc2ccc3cccc4ccc1c2c34)C(C)=O | 20.9 µM | 50.2 µM
46 | Clc1ccc(C=Nc2ccc3c(c2)Cc2ccccc2-3)c(Cl)c1 | – | > 100 µM
47 | COc1ccc(/C=C/c2cc(OC)cc(=O)o2)cc1 | – | > 100 µM
48 | O=C(/C=C\c1ccc(NCc2ccc(C(=O)O)cc2)cc1)CCl | 3.36 µM | 14 µM
49 | COc1cc2[nH]c(C(=O)c3cc(OC)c(OC)c(OC)c3)c(N)c2cc1C#CC1CC1 | 1.94 µM | > 100 µM
50 | O=c1cc(NC2CCN(CCCc3ccccc3)CC2)c2cc(Cl)ccc2o1 | 3.86 µM | 20.5 µM
51 | CC(=O)N[C@H]1CSSC[C@@H](C(N)=O)NC(=O)[C@H](C(C)C)NC(=O)[C@H](C)NC(=O)[C@H](Cc2cnc[nH]2)NC1=O | > 100 µM | > 100 µM
52 | O=C1CC2c3ccccc3CCC2c2ccccc21 (configuration not stated) | – | > 100 µM
53 | O=C1Nc2ccc(F)cc2/C1=C/c1ccc[nH]1 | > 25 µM | > 25 µM
54 | CCCCCCCCCCCCCCCCCCOc1ccccc1CC(=O)OCC[N+]1(C)CCCC1 | 2.81 µM | 10.5 µM
55 | CC(=O)C(=CN1CCN(C(=O)c2ccco2)C1=S)C(C)=O | 38.4 µM | > 100 µM

Each molecule was assayed on MDA-MB-231 breast (assay: growth of human tumour cells (NCI), 48 h).

Row | SMILES | GI50 | TGI
56 | O=S(=O)(Nc1cc(Sc2cccc3cccnc23)c(O)c2ccccc12)c1ccccc1 | 0.47 µM | 6.01 µM
57 | CN(C)C(=O)[C@H](O)[C@H](Cc1ccccc1)NC(=O)c1cc2cc(Cl)ccc2[nH]1 | 19.6 µM | 52.8 µM
58 | CC(C)(C[C@H]1CN(S(=O)(=O)c2cccc(C(F)(F)F)c2)c2cc(-c3cc(F)cc(OC(F)F)c3)ccc2O1)C(=O)O | 13.3 µM | 34 µM
59 | Cc1ccc(-c2nc3ccc(Cl)cc3c(=O)n2N2C(=O)CSC2c2ccccc2Cl)cc1 (configuration not stated) | 4.21 µM | > 100 µM
60 | O=C(O)C1C(Br)(c2ccccc2)C1(Br)c1ccccc1 (configuration not stated) | – | > 100 µM
61 | C#Cc1c(I)n(C2OC(CO[Si](C)(C)C(C)(C)C)C3OC(C)(C)OC32)c(=O)[nH]c1=O (configuration not stated) | 5.24 µM | 19.9 µM
62 | ClCC[N+]12CC[N+](CCCl)(CC1)C2 | – | > 100 µM
63 | COc1cc(C(=O)c2cc(C)c3[nH]c4ccc(C)cc4c3c2C)cc(OC)c1OC | < 0.01 µM | –
64 | COc1cc(/C=C/c2cc(/C=C/c3ccc(O)c(OC)c3)n(C(=O)Nc3ccc(C)cc3C)n2)ccc1O | 0.613 µM | 6.01 µM
65 | C=C1C(=O)OC2/C=C(\COC(C)=O)CCC(OC(C)=O)C3=CC(OC3=O)C12 (configuration not stated) | – | 41.7 µM
66 | Cc1ccc2[nH]c(O)c(N=Nc3ccc(S(N)(=O)=O)cc3)c2c1 | > 25 µM | > 25 µM
67 | C/C(N=NC(=S)N(C)C)=C1\C=CC=CN1O | – | > 100 µM
68 | C=C1CCC(CC[C@@H]2CC[C@]3(OC2)O[C@@]2(O)CC[C@]3(C)OC2(C)C)C(C)(C)[C@H]1C/C=C1/C(=O)OC[C@@H]1O (some centres not stated) | – | 3.72 µM
69 | C[C@]12CC[C@@H]3c4cc(OCC(F)(F)F)c(O)cc4/C(=N/O)C[C@H]3[C@@H]1CC[C@@H]2O | – | 1.5 µM
